Source: ChEMBL document CHEMBL1122964, “Conformational analysis and active site modelling of angiotensin-converting enzyme inhibitors” (J Med Chem, 1985)
pIC50, pKi: −log10 of the molar value. Where a SMILES comes first, the peptide text is derived from it. The star is where a group is joined. Bz = O=C(c1ccccc1)*

Key:
[1] = target: T1, Angiotensin-converting enzyme (Homo sapiens, UniProt P12821); test: Inhibition of Angiotensin I converting enzyme; settings: read-out: I50
[2] = target: T1, Angiotensin-converting enzyme; test: Compound was evaluated for the inhibition of Angiotensin I converting enzyme

T1 sequence (P12821 whole entry): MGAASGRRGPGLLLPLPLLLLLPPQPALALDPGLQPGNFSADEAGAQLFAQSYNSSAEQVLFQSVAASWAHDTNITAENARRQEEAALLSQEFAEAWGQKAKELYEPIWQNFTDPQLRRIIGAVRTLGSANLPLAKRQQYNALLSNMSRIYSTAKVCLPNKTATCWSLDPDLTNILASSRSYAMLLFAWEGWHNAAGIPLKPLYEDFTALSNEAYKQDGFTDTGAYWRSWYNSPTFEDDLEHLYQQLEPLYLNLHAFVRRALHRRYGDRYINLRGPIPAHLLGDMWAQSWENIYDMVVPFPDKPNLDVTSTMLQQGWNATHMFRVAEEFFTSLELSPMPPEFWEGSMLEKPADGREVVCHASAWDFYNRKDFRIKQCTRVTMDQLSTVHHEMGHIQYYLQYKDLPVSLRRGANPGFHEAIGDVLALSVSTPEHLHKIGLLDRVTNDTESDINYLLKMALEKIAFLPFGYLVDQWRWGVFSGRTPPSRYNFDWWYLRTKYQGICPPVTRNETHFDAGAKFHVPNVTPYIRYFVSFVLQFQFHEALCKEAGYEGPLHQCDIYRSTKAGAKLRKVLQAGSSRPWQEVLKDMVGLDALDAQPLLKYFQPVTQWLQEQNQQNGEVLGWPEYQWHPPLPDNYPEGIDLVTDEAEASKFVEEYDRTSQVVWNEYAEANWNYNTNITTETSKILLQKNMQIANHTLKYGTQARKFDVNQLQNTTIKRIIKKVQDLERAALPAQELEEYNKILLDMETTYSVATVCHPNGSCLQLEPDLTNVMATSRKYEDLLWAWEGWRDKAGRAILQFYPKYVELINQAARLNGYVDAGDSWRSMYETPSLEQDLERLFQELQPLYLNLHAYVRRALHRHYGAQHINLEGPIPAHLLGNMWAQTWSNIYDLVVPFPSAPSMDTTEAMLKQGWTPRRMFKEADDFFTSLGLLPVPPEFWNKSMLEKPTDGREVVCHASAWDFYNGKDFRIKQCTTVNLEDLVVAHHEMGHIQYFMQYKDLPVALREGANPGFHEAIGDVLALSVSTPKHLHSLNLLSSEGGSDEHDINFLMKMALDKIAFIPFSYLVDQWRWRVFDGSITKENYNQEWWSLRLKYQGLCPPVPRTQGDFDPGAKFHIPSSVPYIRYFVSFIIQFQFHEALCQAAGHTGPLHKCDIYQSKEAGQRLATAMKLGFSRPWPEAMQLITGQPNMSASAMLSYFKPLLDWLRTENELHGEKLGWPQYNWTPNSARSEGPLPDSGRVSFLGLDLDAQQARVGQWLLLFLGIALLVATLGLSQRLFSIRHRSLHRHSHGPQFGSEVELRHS

Row | SMILES | pIC50 [1] | pKi [2]
1 | O=C(O)[C@@H]1CCCN1C(=O)CCS | 2.74 | –
2 | C[C@@H](NP(=O)(O)O)C(=O)N1CCC[C@H]1C(=O)O | – | 8.85
3 | C[C@H](NC(=O)[C@H](Cc1ccccc1)NC(=O)c1ccccc1)C(=O)N1CCC[C@H]1C(=O)O (Bz-Phe-Ala-Pro-OH) | 8.49 | –
4 | O=C(O)CN1C(=O)[C@@H](NC(CCc2ccccc2)C(=O)O)CSc2ccccc21 (stereo partly specified) | 8.52 | –
5 | C[C@H](NP(=O)(O)CCc1ccccc1)C(=O)N1CCC[C@H]1C(=O)O | – | 9.30
6 | O=C(O)[C@H]1CCCN1C(=O)CCS | 6.70 | –
